According to the supplement of paper PMC13380429:

Experiments:
Conditions in all cases: 72 h
[1] = system: Caco-2; assay: cell viability relative to DMSO; higher = less toxic
[2] = system: Vero E6; assay: as above
[3] = system: Calu-3; assay: as above
[4] = system: HepG2; assay: as above
[5] = system: U2OS; assay: as above
[6] = system: Caco-2; assay: relative viability EC50 (midpoint between 100% and the lowest measured viability); higher = less toxic
[7] = system: Vero E6; assay: as above
[8] = system: Calu-3; assay: as above
[9] = system: HepG2; assay: as above
[10] = system: U2OS; assay: as above
[11] = system: Caco-2; assay: drug sensitivity score (DSS) for viability; higher = more toxic; extreme values may be limits of the assay
[12] = system: Vero E6; assay: as above
[13] = system: Calu-3; assay: as above
[14] = system: HepG2; assay: as above
[15] = system: U2OS; assay: as above

Row | SMILES | cell viability ([1]; 1 nM) [%] | cell viability ([1]; 10 nM) [%] | cell viability ([1]; 100 nM) [%] | cell viability ([1]; 1000 nM) [%] | cell viability ([1]; 10000 nM) [%] | cell viability ([2]; 1 nM) [%] | cell viability ([2]; 10 nM) [%] | cell viability ([2]; 100 nM) [%] | cell viability ([2]; 1000 nM) [%] | cell viability ([2]; 10000 nM) [%] | cell viability ([3]; 1 nM) [%] | cell viability ([3]; 10 nM) [%] | cell viability ([3]; 100 nM) [%] | cell viability ([3]; 1000 nM) [%] | cell viability ([3]; 10000 nM) [%] | cell viability ([4]; 1 nM) [%] | cell viability ([4]; 10 nM) [%] | cell viability ([4]; 100 nM) [%] | cell viability ([4]; 1000 nM) [%] | cell viability ([4]; 10000 nM) [%] | cell viability ([5]; 1 nM) [%] | cell viability ([5]; 10 nM) [%] | cell viability ([5]; 100 nM) [%] | cell viability ([5]; 1000 nM) [%] | cell viability ([5]; 10000 nM) [%] | relative viability EC50 [6] [µM] | relative viability EC50 [7] [µM] | relative viability EC50 [8] [µM] | relative viability EC50 [9] [µM] | relative viability EC50 [10] [µM] | drug sensitivity score [11] | drug sensitivity score [12] | drug sensitivity score [13] | drug sensitivity score [14] | drug sensitivity score [15]
1 | CCN(CC)CCOc1ccccc1C(=O)CCc1ccccc1 [etafenone] | 93.3 | 104 | 94 | 103 | 100 | 93.2 | 93 | 101 | 91.8 | 102 | 96.9 | 99 | 106 | 108 | 101 | 98.6 | 90.6 | 106 | 94.7 | 94.3 | 94.8 | 101 | 97.9 | 103 | 103 | > 10 | > 10 | > 10 | > 10 | > 10 | 0 | 0 | 0 | 0 | 0
2 | CCOC(=O)c1ccccc1OC(N)=O [ethyl-2-(carbamoyloxy)benzoate] | 104 | 91.5 | 97.1 | 106 | 96.9 | 109 | 91.4 | 102 | 106 | 103 | 93.2 | 92.5 | 98 | 122 | 103 | 106 | 87.2 | 94.2 | 83.5 | 103 | 98.6 | 103 | 100 | 102 | 98.6 | > 10 | > 10 | > 10 | > 10 | > 10 | 0 | 0 | 0 | 0 | 0
3 | CC(C)=CCC/C(C)=C/CC/C(C)=C/CSc1ccccc1C(N)=O [farnesyl-thiosalicylic-acid-amide] | 104 | 116 | 95 | 116 | 104 | 89.8 | 101 | 92.8 | 87.1 | 99.7 | 106 | 92.4 | 108 | 105 | 111 | 100 | 105 | 96.6 | 108 | 85.7 | 98.9 | 100 | 105 | 98.3 | 102 | > 10 | > 10 | > 10 | > 10 | > 10 | 0 | 0 | 0 | 0.1 | 0
4 | COC(=O)/C=C/c1cccc(N(Cc2ccc(-c3ccc(N(C)C)cc3)cc2)C(=O)C2CCCCC2)c1 [fexaramine] | 104 | 99.9 | 104 | 92 | 81.1 | 107 | 103 | 99.4 | 98.3 | 88.8 | 110 | 95.4 | 104 | 96.5 | 92.3 | 105 | 104 | 97.4 | 101 | 83.5 | 103 | 97.5 | 99.9 | 97 | 88.5 | > 10 | > 10 | > 10 | > 10 | > 10 | 1.3 | 0.1 | 0 | 0.3 | 0.1
5 | Fc1ccc(C(c2ccc(F)cc2)N2CCN(C/C=C/c3ccccc3)CC2)cc1 [flunarizine] | 99.8 | 102 | 104 | 103 | 81.6 | 104 | 103 | 107 | 102 | 92.3 | 95.8 | 98.9 | 96.5 | 95.8 | 87.4 | 106 | 102 | 106 | 96.3 | 82.8 | 96.1 | 101 | 97.7 | 98.4 | 88.8 | > 10 | > 10 | > 10 | > 10 | > 10 | 0.3 | 0 | 0 | 0.8 | 0.1
